The values that follow come from patent US20080318911A1, “20-Cyclopropyl, 26,27-Alkyl/Haloalkyl Vitamin D3 Compounds and Methods of Use Thereof” (BIOXELL S.P.A., priority 2004, published 2008).

Data set [1] is described as follows: Determination of Maximum Tolerated Dose (MTD) in mice. The following applies: mouse, in vivo, po; female C57BL/6 mice, p.o. daily for four days; highest dose without hypercalcemia (serum calcium >10.7 mg/dl).
In data set [2] the test system is IFN-γ production by allogeneic PBMC. As to the kind of experiment: IFN-γ production in the mixed leukocyte response (MLR). Format: cell-based. The following applies: 120 h; MLR of allogeneic PBMC, 5 days, ELISA; read-out: INF-γ IC50. The protocol:
Immature dendritic cells (DC) were prepared as described in Romani, N. et al. (Romani, N. et al. (1996) J. Immunol. Meth. 196:137). IFN-γ production by allogeneic T cell activation in the mixed leukocyte response (MLR) was determined as described in Penna, G., et al., J Immunol., 164: 2405-2411 (2000).
Briefly, peripheral blood mononuclear cells (PBMC) were separated from buffy coats by Ficoll gradient and the same number (3×10^5) of allogeneic PBMC from 2 different donors were co-cultured in 96-well flat-bottom plates. The vitamin D3 compounds were added to each of the cultures.
(In general: An ELISA detects its analyte on a solid surface through an enzyme-linked reagent.)

The test system of a further data set is RT112. Nature of the data set: Proliferation assay using bladder cancer cell lines: RT112. Type of data set: cell-based, human. Conditions: Homo sapiens, RT-112; 72 h culture, CyQuant proliferation assay. As to the method: (§1) Bladder cancer cell lines (T24, RT112, HT1376 and RT4 are human bladder cancer cell lines; NHEK are normal human keratinocytes) were obtained from the European Collection of Cell Cultures (Salisbury, UK). Cells were plated at 3×10^3 per well, in flat bottomed 96-well plates in 100 μl of DMEM medium containing: 5% Fetal Clone 1,50 μg/l gentamicin, 1 mM sodium pyruvate and 1% non-essential amino acids. After culturing for 24 h at 37° C. in 5% CO2, to allow cells to adhere to the plates, VDR ligands (compounds (1)-(14)) were added at concentrations ranging from 100 μM to 0.3 μM in 100 μl of above-mentioned complete medium. After a further 72 h of culture, cell proliferation was measured using a fluorescence-based proliferation assay kit. (CyQuant Cell Proliferation Assay Kit, Molecular Probes, Eugene, Oreg., USA). The IC50 was calculated from the regression curve of the titration data.

A further data set has as its system RT4. Nature of the data set: Proliferation assay using bladder cancer cell lines: RT4. Type of data set: cell-based, human. The following applies: Homo sapiens, RT-4; 72 h culture, CyQuant proliferation assay. As to the method:
as §1

Data set [3] has as its system Renin mRNA in As4.1 cells. Nature of the data set: Renin mRNA inhibition in murine juxtaglomerular cell line As4.1. Type of data set: cell-based. The following applies: Mus musculus, 24 h, real time PCR normalized versus β-actin, read-out: Renin mRNA inh.As4.1/wt. The protocol: As4.1 cells (80% subconfluent) were treated in complete medium with compounds of the invention at 10^−8, 10^−9 and 10^−10 M for 24 h. Total RNA was extracted using RNeasy Mini kit (Qiagen); treated with DNase I (Qiagen) and Reverse Transcription Reagent (Applied Biosystems) with Random Examers were used for reverse transcription according to the manufacturers' instructions. Real Time PCR analysis was performed in multiplex using commercially available β-actin VIC-conjugated probe (cat. n. 4352341E, Applied Biosystems) and custom designed mRENIN FAM-conjugated probe (Assay by Design, Applied Biosystems; Forward: […]; Reverse: […]; Probe: FAM-[…]-MGB). Reactions were performed in a 25 μL volume containing 12,5 μl 2× Master Mix (Applied Biosystems), 10 ng/reaction/well cDNA, and 2,5 μM each gene-specific primer. An ABI PRISM 7700 analyzer (Applied Biosystems) was used at 50° C. for 2 minutes and 95° C. for 10 minutes, followed by 40 cycles at 95° C. for 15 seconds and 60° C. for 1 minute. Cycle threshold (Ct) values were exported onto Excel worksheets for analysis. Test cDNA results were normalized versus mouse β-actin housekeeping gene. Fold differences in gene expression between the subtracted versus the unsubtracted populations were expressed using the method of 2^−ΔΔCt. (Table 6)
(Quantitative PCR measures a nucleic acid by following its amplification.)

The next data set has as its system NHEK. As to the kind of experiment: Proliferation assay: NHEK normal human keratinocytes. Format: cell-based. The following applies: 72 h culture, CyQuant proliferation assay. As to the method: as §1
The test system of data set [4] is human stromal bladder cells. As to the kind of experiment: Basal growth of human stromal bladder cells. Format: cell-based. The following applies: FIG. 2. The text has this: The Inventors confirmed the presence of vitamin D receptors (VDRs), as previously reported in the literature, on these cells (see below in FIG. 1).
The maximum tolerated dose (MTD) in rats is also listed for each compound (Table 5).

As usually defined, the MTD is the largest dose that counted as tolerated. For `C=C1/C(=C\C=C2/CCC[C@]3(C)C(C4(CC#CC(C)(C)O)CC4)=CCC23)CC(O)C[C@@H]1O` (stereo partly drawn) [Compound 1, 1α,25-Dihydroxy-16-ene-20-cyclopropyl-23,24-yne-cholecalciferol], the MTD at 4 days in data set [1] is 10 µg/kg. For the same compound, the IC50 in data set [2] was 33.6 pM; in the data set on RT112 it was above 30 µM; with RT4, 10.6 µM; in data set [3], 0.00942 µM.
The corresponding values for `CC(C)(O)C#CCC1(C2=CCC3/C(=C/C=C4/CC(O)C[C@H](O)C4)CCC[C@]23C)CC1` (stereo partly drawn) [Compound 2, 1α,25-Dihydroxy-16-ene-20-cyclopropyl-23,24-yne-19-nor-cholecalciferol] are 10 µg/kg, 25.4 pM, above 30 µM, 6.3 µM and 0.0972 µM.
`C[C@]12CCC/C(=C\C=C3\CC(O)C[C@H](O)C3)C1CC=C2C1(C/C=C/C(O)(C(F)(F)F)C(F)(F)F)CC1` (stereo partly drawn) [Compound 5, 1α,25-Dihydroxy-16-ene-20-cyclopropyl-23,24-E-ene-26,27-hexafluoro-19-nor-cholecalciferol]: the IC50 in data set [2] came out at 12 pM; in the data set on RT112 it was 14.5 µM; in the data set on RT4, 4.6 µM; in the data set on NHEK, 4.9 µM; in data set [3], 0.0044 µM.
As for `C=C1/C(=C\C=C2/CCC[C@]3(C)C(C4(CCCC(C)(C)O)CC4)=CCC23)CC(O)C[C@@H]1O` (stereo partly drawn) [Compound 10, 1α,25-Dihydroxy-16-ene-20-cyclopropyl-cholecalciferol], the MTD at 4 days in data set [1] was 1 µg/kg. For the same compound, the IC50 was 27.6 µM with RT112, 2 µM in the data set with RT4, 5.2 µM in the data set on NHEK and 0.0262 µM in data set [3]. The “inhibiting the basal growth of bladder cells” value in data set [4] is reported as “effective”.
In the case of `C=C1/C(=C\C=C2/CCC[C@]3(C)C(C4(CC#CC(C)(C)O)CC4)=CCC23)CC(O)C[C@@H]1F` (stereo partly drawn) [Compound 11, 1α-Fluoro-25-hydroxy-16-ene-23-yne-20-cyclopropyl-cholecalciferol], in data set [1], the MTD at 4 days is 100 µg/kg. The IC50 in data set [2] was 16.4 pM; in the data set with RT112, above 30 µM; in the data set on RT4 it was 16.7 µM; in data set [3], 0.303 µM.
`C=C1/C(=C\C=C2/CCC[C@]3(C)C(C4(CC#CC(O)(C(F)(F)F)C(F)(F)F)CC4)=CCC23)CC(O)C[C@@H]1F` (stereo partly drawn) [Compound 12, 1α-Fluoro-25-hydroxy-16-ene-20-cyclopropyl-23-yne-26,27-hexafluoro-cholecalciferol]: the MTD at 4 days in data set [1] is 0.3 µg/kg. Also, the IC50 was found to be 585 pM in data set [2]; 16.9 µM in the data set with RT112; 3.6 µM with RT4; 1 µM in the data set with NHEK; 0.00973 µM in data set [3].
For `C=C1/C(=C\C=C2/CCC[C@]3(C)C(C4(C/C=C/C(O)(C(F)(F)F)C(F)(F)F)CC4)=CCC23)CC(O)C[C@@H]1F` (stereo partly drawn) [Compound 13, 1α-Fluoro-25-hydroxy-16,23E-diene-20-cyclopropyl-26,27-hexafluoro-cholecalciferol], the MTD at 4 days in data set [1] was 3 µg/kg. Also, the IC50 in data set [2] is 65 pM; in the data set on RT112 it was 17 µM; in the data set with RT4, 3.6 µM; in the data set with NHEK it was 5.1 µM; in data set [3], 0.0095 µM.
Regarding `C=C1/C(=C\C=C2/CCC[C@]3(C)C(C4(C/C=C\C(O)(C(F)(F)F)C(F)(F)F)CC4)=CCC23)CC(O)C[C@@H]1F` (stereo partly drawn) [Compound 14, 1α-Fluoro-25-hydroxy-16,23Z-diene-20-cyclopropyl-26,27-hexafluoro-cholecalciferol], the MTD at 4 days in data set [1] was 1 µg/kg. Further, the IC50 in data set [2] is 81 pM; with RT112 it was 21 µM; with RT4, 3.1 µM; with NHEK, 4 µM; in data set [3], 0.006 µM.
